This is an account of results in patent publication US20220087946A1, “COMPOSITIONS, METHODS, SYSTEMS AND/OR KITS FOR PREVENTING AND/OR TREATING NEOPLASMS” (Research Cancer Institute of America, priority 2017, published 2022).

In one data set the test system is OVCAR 3 Cancer cells. The data set can be described thus: Nano formulations in animals with implanted tumor: side effects. The following applies: mouse, in vivo. The protocol:
Animals—Immunodeficient, female athymic mice aged 5-6 weeks and weighing between 18 and 20 g were purchased from Taconic Biosciences (Albany, N.Y.). All animal studies were conducted at the animal facility of the Veteran Affairs Medical Center, Albany, N.Y. in accordance with and approved by institutional guidelines for humane animal treatment and according to the current guidelines. Mice were maintained under specific pathogen-free conditions and housed under controlled conditions of temperature (20-24° C.) and humidity (60-70%) and 12 h light/dark cycle with ad libitum access to water and food. Mice were allowed to acclimatize for 5 d prior to the start of study.
Treatment—OVCAR 3 Cancer cells (1×10^6) were implanted subcutaneously in right flank of each animal. In the first set of experiments, control, free Quercetin (3 mg/kg), NPS-quercetin(3 mg/kg), and FA-NPs-quercetin (3 mg/kg) were injected subcutaneously to the mice everyday (for 14 days). The control was PBS, after humane sacrifice of animals at 14 days, tumors were harvested and amount of QC was measured.

The conditions of data set [1]: cited from earlier work.

Consider `O=c1c(O)c(-c2ccc(O)c(O)c2)oc2cc(O)cc(O)c12` [Quercetin, quercetin], for which the “adverse toxic effect on the health of tumor bearing mice” value in the data set with OVCAR 3 Cancer cells is recorded as “does not have any adverse toxic effect”. Also, in data set [1], the water solubility entry is given as “not water soluble”.
